Where “and” joins values, the source holds several entries; their conditions need not be identical. Identical values can stand only once.
Legend:
[1] = test system: control rats without colitis; assay: Colonic prostaglandin levels and COX-2/PG synthase mRNA in control rats without colitis; assay type: in vivo, rat
Procedure: After a 7-day adaptation period, animals were divided into two control groups (sham-control and 7β-hydroxy-EPIA-treated control group and two colitis groups (colitis and 7β-hydroxy-EPIA-treated colitis). 7β-Hydroxy-EPIA (0.01, 0.1, and 1 mg/kg body weight dissolved in DMSO) or DMSO alone (vehicle) was administered i.p. once a day for 7 days, from day 0 to day 7. Colitis was induced from day 7 to 14 by addition of DSS (molecular weight 36-50 kDa; MP Biomedicals, France) to drinking water. The two control groups received tap water only.
Commercially available EIA kits were used for the determination of PGE2 levels (Oxford Biomedical Research, UK) and 15d-PGJ2 levels (Assay designs, Euromedex, France) in colonic supernatants obtained from fresh homogenates. Measurement of PGD2 levels was obtained using the prostaglandin D2-MOX EIA kit (Cayman Chemical, Euromedex). In this case, and prior to assay, the fresh samples were immediately treated with the MOX-HCl reagent which converted PGD2 into PGD2-MOX, thus preventing any further chemical degradation.
Total RNA from fresh colonic samples (300 mg) was extracted using Trizol Reagent (Invitrogen, Cergy-Pontoise, France). Poly(A) RNA was purified from total RNA with MicroPoly(A)Purist kit (Ambion, Huntingdon, UK). cDNA was synthesized using the Superscript first strand synthesis system kit (Invitrogen). Real-time PCR was performed using mixtures (25 μL) containing 2.5× RealMaster Mix/20×SYBR solution (11.25 μL) (Eppendorf, Le Pecq, France) and 300 nM forward and reverse primers. Reactions were run on a RealPlex ep gradient S mastercycler (Eppendorf). The cycling conditions were at 95° C. for 10 minutes and 40 cycles at 95° C., 55° C. and 68° C. for 15 seconds, 30 seconds and 30 seconds, respectively. Each assay included a standard curve of four serial dilution points of control cDNA. Oligonucleotide primers were synthesized by Genecust/Distribio (Evry, France). The specificity of the amplified product was monitored by examination of the product melting curve and confirmed by analysis on agarose gel electrophoresis. The levels of mRNA were expressed relative to that of the DMSO control, after normalization to HPRT1.

rat sensory neurones = assay: Cisplatin-induced loss of neurite density in primary dorsal root ganglia sensory neurones (anti β-Tubulin); assay type: cell-based; settings: for % Control without cisplatin (neurite length) / Mean neurite length: cisplatin 3 μg/ml
Procedure: Primary cultures of dissociated dorsal root ganglia sensory neurones were incubated with 3 μg/ml cisplatin, with and without 7β-OH EPIA for 48 hours and 72 hours and the following parameters were evaluated:
neurite network density stained with an anti 8-Tubulin antibody
Rat sensory neurones were prepared according to the method described by Hall et al 1997 [Hall et al. (J. Neurosci. 1997 Apr. 15; 17(8); 2775-84]. Briefly, a female rat (15 days gestation) was killed by cervical dislocation (Rats Wistar; Janvier, Le Genest-St-lsle, France) and the foetuses removed from the uterus. Their spinal cords with the dorsal root ganglia (DRG) were removed and placed in ice-cold medium of Leibovitz (L15, Fisher 11415-049) containing Penicillin 50 UI/ml-Streptomycin 50 μg/ml (PS, 1%) and bovine serum albuminutes (BSA 1%, Sigma A6003). The DRG were recovered and dissociated by trypsinisation for 20 minutes at 37° C. (trypsin EDTA 10×, 10%, Fisher 15400054) diluted in PBS without calcium and magnesium (Fisher 2007-03). The reaction was stopped by addition of Dulbecco modified Eagle medium (DMEM, Fisher 21969-035) containing DNase I grade II (0.1 mg/ml Roche diagnostic 104159) and foetal bovine serum (FBS 10%, Fisher 10270-098). The cell suspension was triturated with a 10 ml pipette and centrifuged at 350×g for 10 minutes at room temperature. The pellet of dissociated cells was then resuspended in defined culture medium.
Viable cells were counted in a Neubauer cytometer using the trypan blue exclusion test (Sigma) and seeded at a density of 30 000 cells/well in 96 well-plates (Nunc). Wells were pre-coated with poly-L-lysine (10 μg/ml, Sigma P2636) in ultra pure sterile water (Merck Eurolab 60759.01).
Cells were allowed to adhere for 2 h and maintained in a humidified incubator at 37° C. in 5% CO2/95% air atmosphere.
After 5 days of culture, the culture medium was changed into a defined culture medium following the different conditions described below:
Test compound 7β-OH EPIA (1 nM, 10 nM and 100 nM)+cisplatin (3 μg/ml)
Reference compound NGF (10 ng/ml)+cisplatin (3 μg/ml)
Six wells per condition were carried out to assess neuronal survival. After 48 hours and 72 hours of incubation, the neuronal cells were fixed for 5 minutes in an ethanol/acetic acid solution (95%/5%) at −20° C. and rinsed 3 times in PBS.
Cell bodies of sensory neurones were labelled by monoclonal anti MAP-2 antibody (Sigma M4403) and the neurite of sensory neurones were labelled by monoclonal β-Tubulin antibody (Sigma T8660). These antibodies were diluted at 1:400 in incubation solution (PBS with 5% of FCS and 0.1% of saponin, Sigma S-7900). These antibodies specifically label neurone cell bodies and neuritis, respectively.
After 2 hours of incubation, the cells were washed in PBS and incubated with Alexa Fluor 488 goat anti mouse IgG (Molecular Probes A11001) diluted at 1:300 in incubation solution to reveal the MAP-2 and the β-Tubulin antibodies. Cell nuclei were stained with a fluorescent marker (Hoechst staining solution, SIGMA H6024, 1 μg/ml in incubation solution during 1 hour).
For each condition, 2 pictures per well (12 pictures per condition) were taken using In Cell Analyzer 1000 (Amersham Biosciences) controlled by the computer software In Cell Analyzer 1000 3.2. For the MAP-2 labelling, the magnification was ×10, for the β-Tubulin labelling, the magnification was ×20. For each labelling, all the images were taken in the same conditions.
Analysis of the number of cell bodies labelled with anti-MAP-2 antibodies, and total length of neurites labelled with anti β-Tubulin antibodies, were carried out using In Cell Analyzer 1000 3.2.Workstation software. The results were expressed in percentage compared to the vehicle. The comparisons of each group were carried out using the unpaired T test.

For `CC12CCC3C(C1CCC2=O)[C@@H](O)C[C@H]1C[C@@H](O)CCC31C` (stereo partly drawn) [Compound 7β-OH-EPIA, 7β-hydroxy-EPIAndrosterone], the “increase of colonic 15d-PGJ2 above basal levels” value ([1]; 0.1 mg/kg day 0 to day 7, day 2) was 51 fold, the “increase in COX-2 mRNA levels” value ([1]; 0.1 mg/kg, at 15 h) was 1.5 fold and the “mPGES-1 mRNA expression” value ([1]; 0.1 mg/kg, between 6 h and 15 h) was “increased transiently”. For the same compound, the “H-PGDS mRNA synthesis” value ([1]; 0.1 mg/kg, course of the experiment) was “remained unchanged”, the “PGE2 and PGD2 colonic tissue levels” value ([1]; control rats without colitis) was “did not alter” and the “reduction of cisplatin-induced toxicity (neurite loss)” value (“reduction … (neurite loss)” for short) (rat sensory neurones; 1 nM, 48 hours) was 90.7%. The “reduction … (neurite loss)” value (rat sensory neurones; 1 nM, 72 hours) was 70.8%, the “% Control without cisplatin (neurite length)” value (shortened to “% Control without cisplatin”) (rat sensory neurones; 1 nM, 48 hours) was 99% and the Mean neurite length (rat sensory neurones; 1 nM, 48 hours) was 5378 μm and 5377.89 μm. For the same compound, the “% Control without cisplatin” value (rat sensory neurones; 1 nM, 72 hours) was 93%, the Mean neurite length (rat sensory neurones; 1 nM, 72 hours) was 4948 μm and 4947.99 μm and the “reduction … (neurite loss)” value (rat sensory neurones; 10 nM, 48 hours) was 101%. The “% Control without cisplatin” value (rat sensory neurones; 10 nM, 48 hours) was 102%, the Mean neurite length (rat sensory neurones; 10 nM, 48 hours) was 5549 μm and 5549.41 μm and the “% Control without cisplatin” value (rat sensory neurones; 10 nM, 72 hours) was 80%. The Mean neurite length (rat sensory neurones; 10 nM, 72 hours) was 4275.04 μm, the “% Control without cisplatin” value (rat sensory neurones; 100 nM, 48 hours) was 81% and the Mean neurite length (rat sensory neurones; 100 nM, 48 hours) was 4442.51 μm. The “% Control without cisplatin” value (rat sensory neurones; 100 nM, 72 hours) was 77% and the Mean neurite length (rat sensory neurones; 100 nM, 72 hours) was 4080.89 μm.

Source: US20130023504A1, “Modulation of Prostaglandin/Cyclooxygenase Metabolic Pathways” (HUNTER-FLEMING LIMITED, priority 2006, published 2013)
